Results reported in US20230270114A1, “FUNGICIDAL COMPOSITIONS” (SYNGENTA CROP PROTECTION AG, priority 2020, published 2023).
Where two headings read alike, the source gives them in different places.

Experiments:
[1] = system: Alternaria solani; experiment: Example A1: Alternaria solani / tomato / leaf disc (early blight); type: in vivo; details: foliar, tomato leaf disks inoculated 2 days after application, compared to untreated control
[2] = system: Botryotinia fuckeliana (Botrytis cinerea); experiment: Example A2: Botryotinia fuckeliana (Botrytis cinerea) / liquid culture (gray mould); type: cell-based; details: read-out: control of Botryotinia fuckeliana
Description: Example A2: Botryotinia Fuckeliana (Botrytis Cinerea) / Liquid Culture (Gray Mould) Conidia of the fungus from cryogenic storage are directly mixed into nutrient broth (Vogels broth). […] […].38.

[3] = system: Glomerella lagenarium (Colletotrichum lagenarium); experiment: Example A3: Glomerella lagenarium (Colletotrichum lagenarium) / liquid culture (anthracnose); type: cell-based; details: Colletotrichum orbiculare; read-out: control of Glomerella lagenarium
[4] = system: Monographella nivalis (Microdochium nivale); experiment: Example A6: Monographella nivalis (Microdochium nivale) / liquid culture (foot rot cereals); type: cell-based; details: read-out: control of Monographella nivalis
[5] = system: Phakopsora pachyrhizi; experiment: Example A8: Phakopsora pachyrhizi / soybean / preventative (soybean rust); type: in vivo; details: foliar, soybean leaf disks preventative, inoculated one day after application, compared to untreated control
[6] = system: Puccinia recondita f. sp. tritici; type: in vivo; details: foliar, 24 h, wheat leaf disc curative, applied 1 day after inoculation, compared to untreated control
[7] = system: Puccinia recondita f. sp. tritici; type: in vivo; details: foliar, wheat leaf disc preventative, inoculated 1 day after application, compared to untreated control
[8] = system: Magnaporthe grisea (Pyricularia oryzae); experiment: whole plant or invertebrate; type: in vivo; details: foliar, read-out: control of Magnaporthe grisea
[9] = system: Pyrenophora teres; experiment: Example A12: Pyrenophora teres / barley / leaf disc preventative (net blotch); type: in vivo; details: foliar, inoculated 2 days after application, compared to untreated control
[10] = system: Mycosphaerella graminicola (Septoria tritici); experiment: Example A14: Mycosphaerella graminicola (Septoria tritici) / liquid culture (Septoria blotch); type: cell-based; details: Zymoseptoria tritici; read-out: control of Mycosphaerella graminicola
[11] = system: Mycosphaerella arachidis (Cercospora arachidicola); experiment: Example A7: Mycosphaerella arachidis (Cercospora arachidicola) / liquid culture (early leaf spot); type: cell-based; details: read-out: control of Mycosphaerella arachidis

Row | Structure (SMILES) | pest or weed control at 200 ppm [1] [%] | inhibition of growth at 20 ppm [2] [%] | inhibition of growth at 20 ppm [3] [%] | inhibition of growth at 20 ppm [4] [%] | pest or weed control at 200 ppm [5] [%] | pest or weed control at 200 ppm [6] [%] | pest or weed control at 200 ppm [7] [%] | pest or weed control at 200 ppm [8] [%] | pest or weed control at 200 ppm [9] [%] | inhibition of growth at 20 ppm [10] [%] | melting point [°C] | inhibition of growth at 20 ppm [11] [%] | pest or weed control at 200 ppm ([8]; 200 ppm) [%]
1 | Cc1sc(N(C(=O)COCc2ccccc2)c2cc(F)nc(F)c2)nc1C(=O)NC1CCC1(C)C (stereo not drawn) [X.14, 2-[(2-benzyloxyacetyl)-(2,6-difluoro-4-pyridyl)amino]-N-(2,2-dimethylcyclobutyl)-5-methyl-thiazole-4-carboxamide] | ≥ 80 | ≥ 70 | ≥ 80 | ≥ 80 | ≥ 80 | ≥ 80 | ≥ 80 | ≥ 80 | ≥ 80 | ≥ 80 | – | – | –
2 | CC(=O)N(c1cc(F)nc(F)c1)c1nc(C(=O)NC2CCC2(C)C)c(C)s1 (stereo not drawn) [X.36, 2-[acetyl-(2,6-difluoro-4-pyridyl)amino]-N-(2,2-dimethylcyclobutyl)-5-methylthiazole-4-carboxamide] | ≥ 80 | ≥ 70 | ≥ 80 | ≥ 80 | – | – | ≥ 80 | ≥ 80 | ≥ 80 | ≥ 80 | – | – | –
3 | Cc1sc(N(C(=O)C(C)C)c2cc(F)nc(F)c2)nc1C(=O)NC1CCC1(C)C (stereo not drawn) [X.38, 2-[(2,6-difluoro-4-pyridyl)-(2-methylpropanoyl)amino]-N-(2,2-dimethylcyclobutyl)-5-methyl-thiazole-4-carboxamide] | ≥ 80 | ≥ 70 | ≥ 80 | ≥ 80 | ≥ 80 | ≥ 80 | ≥ 80 | ≥ 80 | ≥ 80 | – | 123 to 126 | – | –
4 | Cc1sc(N(C(=O)CCl)c2cc(F)nc(F)c2)nc1C(=O)NC1CCC1(C)C (stereo not drawn) [X.17, 2-[(2-chloroacetyl)-(2,6-difluoro-4-pyridyl)amino]-N-(2,2-dimethylcyclobutyl)-5-methyl-thiazole-4-carboxamide] | ≥ 80 | – | ≥ 80 | ≥ 80 | ≥ 80 | ≥ 80 | ≥ 80 | ≥ 80 | ≥ 80 | ≥ 80 | – | ≥ 80 | –
5 | Cc1sc(N(C=O)c2cc(F)nc(F)c2)nc1C(=O)NC1CCC1(C)C (stereo not drawn) [X.33, 2-[(2,6-difluoro-4-pyridyl)-formyl-amino]-N-(2,2-dimethylcyclobutyl)-5-methylthiazole-4-carboxamide] | ≥ 80 | ≥ 70 | ≥ 80 | ≥ 80 | ≥ 80 | ≥ 80 | ≥ 80 | ≥ 80 | ≥ 80 | ≥ 80 | – | ≥ 80 | –
6 | Cc1sc(N(C(=O)c2ccccc2)c2cc(F)nc(F)c2)nc1C(=O)NC1CCC1(C)C (stereo not drawn) [X.35, 2-[benzoyl-(2,6-difluoro-4-pyridyl)amino]-N-(2,2-dimethylcyclobutyl)-5-methylthiazole-4-carboxamide] | ≥ 80 | ≥ 70 | ≥ 80 | ≥ 80 | ≥ 80 | – | ≥ 80 | ≥ 80 | ≥ 80 | – | – | – | –
7 | CCOCC(=O)N(c1cc(F)nc(F)c1)c1nc(C(=O)NC2CCC2(C)C)c(C)s1 (stereo not drawn) [X.15, 2-[(2,6-difluoro-4-pyridyl)-(2-ethoxyacetyl)amino]-N-(2,2-dimethylcyclobutyl)-5-methyl-thiazole-4-carboxamide] | ≥ 80 | ≥ 70 | ≥ 80 | ≥ 80 | ≥ 80 | ≥ 80 | ≥ 80 | ≥ 80 | ≥ 80 | ≥ 80 | – | – | –
8 | Cc1sc(N(C(=O)CF)c2cc(F)nc(F)c2)nc1C(=O)NC1CCC1(C)C (stereo not drawn) [X.27, 2-[(2,6-difluoro-4-pyridyl)-(2-fluoroacetyl)amino]-N-(2,2-dimethylcyclobutyl)-5-methyl-thiazole-4-carboxamide] | ≥ 80 | – | ≥ 80 | ≥ 80 | ≥ 80 | ≥ 80 | ≥ 80 | – | ≥ 80 | ≥ 80 | – | ≥ 80 | ≥ 80
9 | COCC(=O)N(c1cc(F)nc(F)c1)c1nc(C(=O)NC2CCC2(C)C)c(C)s1 (stereo not drawn) [X.29, 2-[(2,6-difluoro-4-pyridyl)-(2-methoxyacetyl)amino]-N-(2,2-dimethylcyclobutyl)-5-methyl-thiazole-4-carboxamide] | ≥ 80 | ≥ 70 | ≥ 80 | ≥ 80 | ≥ 80 | ≥ 80 | ≥ 80 | ≥ 80 | ≥ 80 | ≥ 80 | – | ≥ 80 | –
10 | CCOC(=O)C(=O)N(c1cc(F)nc(F)c1)c1nc(C(=O)NC2CCC2(C)C)c(C)s1 (stereo not drawn) [X.34, ethyl 2-[(2,6-difluoro-4-pyridyl)-[4-[(2,2-dimethylcyclobutyl)carbamoyl]-5-methyl-thiazol-2-yl]amino]-2-oxo-acetate] | ≥ 80 | ≥ 70 | ≥ 80 | ≥ 80 | ≥ 80 | ≥ 80 | ≥ 80 | ≥ 80 | ≥ 80 | ≥ 80 | – | ≥ 80 | –
